Values quoted from earlier work, collected in patent US20080124279A1, “Colonic delivery using Zn/pectin beads with a Eudragit coating” (priority 2006, published 2008).
Like-named read-outs stand apart in the source and are kept apart here.

Experiments:
VIM-2 = VIM-2 (Escherichia coli, UniProt Q5U7L7)
IMP-1 = IMP-1 (Serratia marcescens, UniProt P52699)
L-1(wt) = L-1(wt) (Stenotrophomonas maltophilia, UniProt P52700)
L-1(wt), sequence (P52700 34-290): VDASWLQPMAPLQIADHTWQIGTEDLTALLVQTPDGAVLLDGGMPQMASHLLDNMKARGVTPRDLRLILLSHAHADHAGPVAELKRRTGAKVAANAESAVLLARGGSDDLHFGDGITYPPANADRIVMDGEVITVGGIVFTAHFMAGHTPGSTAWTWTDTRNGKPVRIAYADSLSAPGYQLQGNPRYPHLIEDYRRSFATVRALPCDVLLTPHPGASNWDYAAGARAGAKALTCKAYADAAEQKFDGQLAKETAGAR

IMP-1, sequence (P52699 19-246 limits assumed): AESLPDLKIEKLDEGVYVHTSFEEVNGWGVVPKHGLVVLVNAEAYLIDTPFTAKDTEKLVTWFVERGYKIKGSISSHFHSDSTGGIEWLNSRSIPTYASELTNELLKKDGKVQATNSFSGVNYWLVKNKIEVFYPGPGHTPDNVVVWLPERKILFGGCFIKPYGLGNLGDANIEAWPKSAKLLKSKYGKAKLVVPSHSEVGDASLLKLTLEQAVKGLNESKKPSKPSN

Row | Compound | Km (VIM-2) [µM] | Kcat (FEZ-1) [s⁻¹] | Km (FEZ-1) [µM] | Kcat (IMP-1) [s⁻¹] | Km (IMP-1) [µM] | Kcat (L-1(wt)) [s⁻¹] | Km (L-1(wt)) [µM] | Kcat (VIM-2) [s⁻¹] | Km (VIM-2; read-out: Km) [µM] | Km (IMP-1; read-out: Km) [µM]
1 | CC1(C)S[C@@H]2[C@H](NC(=O)[C@H](N)c3ccccc3)C(=O)N2[C@H]1C(=O)O [Ampicillin] | 90 | >5.5 | > 5000 | 950 | 200 | 520 | 55 | – | – | –
2 | CC1(C)S[C@@H]2[C@H](NC(=O)[C@H](NC(=O)N3CCNC3=O)c3ccccc3)C(=O)N2[C@H]1C(=O)O [Azlocillin] | 200 | – | – | – | – | – | – | 200 | – | –
3 | C[C@H]1[C@H](NC(=O)/C(=N\OC(C)(C)C(=O)O)c2csc(N)n2)C(=O)N1S(=O)(=O)O [Aztreonam] | > 1000 | – | – | >0.01 | > 1000 | – | – | <0.01 | – | –
4 | CC1(C)S[C@@H]2[C@H](NC(=O)Cc3ccccc3)C(=O)N2[C@H]1C(=O)O [Benzylpenicillin] | 49 | 70 | 590 | 320 | 520 | 600 | 38 | 56 | – | –
5 | C[C@@H](O)[C@H]1C(=O)N2C(C(=O)[O-])=C(SC3Cn4cnc[n+]4C3)[C@H](C)[C@H]12 (stereo partly drawn) [Biapenem] | 15 | 70 | > 1000 | 160 | 28 | 134 | 32 | 8.5 | – | –
6 | CC1(C)S[C@@H]2[C@H](NC(=O)C(C(=O)O)c3ccccc3)C(=O)N2[C@H]1C(=O)O (stereo partly drawn) [Cabenicillin] | – | 35 | 1600 | – | – | – | – | 185 | 205 | –
7 | NC(=O)OC[C@@H]1[C@H](NC(=O)/C(=N\OCC(=O)O)c2csc(N)n2)C(=O)N1S(=O)(=O)O [Carumonam] | – | – | – | >0.01 | > 1000 | – | – | – | – | –
8 | CO/N=C(\C(=O)N[C@@H]1C(=O)N2C(C(=O)[O-])=C(C[N+]3(C)CCCC3)CS[C@H]12)c1csc(N)n1 [Cefepim] | – | >6 | > 1000 | 7 | – | – | – | >40 | > 400 | 11
9 | CO/N=C(\C(=O)N[C@@H]1C(=O)N2C(C(=O)O)=C(COC(C)=O)CS[C@H]12)c1csc(N)n1 [Cefotaxim] | – | 165 | 70 | 1.3 | – | 270 | 10 | 70 | 12 | 4
10 | CO[C@@]1(NC(=O)Cc2cccs2)C(=O)N2C(C(=O)O)=C(COC(N)=O)CS[C@@H]21 [Cefoxitin] | 13 | – | – | – | – | 1 | 3 | 15 | – | –
11 | CO/N=C(\C(=O)N[C@@H]1C(=O)N2C(C(=O)[O-])=C(C[n+]3cccc4c3CCC4)CS[C@H]12)c1csc(N)n1 [Cefpirom] | – | – | – | 9 | – | – | – | 180 | 180 | 14
12 | CC(C)(O/N=C(\C(=O)N[C@@H]1C(=O)N2C(C(=O)[O-])=C(C[n+]3ccccc3)CS[C@H]12)c1csc(N)n1)C(=O)O [Ceftazidin] | – | – | – | 8 | – | – | – | 3.6 | 72 | 44
13 | CO/N=C(\C(=O)N[C@@H]1C(=O)N2C(C(=O)O)=C(COC(N)=O)CS[C@H]12)c1ccco1 [Cefuroxin] | – | – | – | – | – | – | – | 8 | 20 | –
14 | O=C(Cc1cccs1)N[C@@H]1C(=O)N2C(C(=O)[O-])=C(C[n+]3ccccc3)CS[C@H]12 [Cephaloridin] | – | 16 | 1000 | 53 | – | – | – | 140 | 50 | 22
15 | CC(=O)OCC1=C(C(=O)O)N2C(=O)[C@@H](NC(=O)Cc3cccs3)[C@H]2SC1 [Cephalothin] | 11 | – | – | 48 | – | 82 | 8.9 | 130 | – | –
16 | O=C(O)[C@H]1/C(=C/CO)O[C@@H]2CC(=O)N21 [Clavulanic Acid] | – | <0.01 | > 1000 | – | – | 11 | 22 | – | – | –
17 | C[C@@H](O)[C@H]1C(=O)N2C(C(=O)O)=C(SCCN=CN)C[C@H]12 [Imipenem] | 9 | – | – | – | 39 | – | 57 | – | – | –
18 | C[C@@H](O)[C@H]1C(=O)N2C(C(=O)O)=C(S[C@@H]3CN[C@H](C(=O)N(C)C)C3)[C@H](C)[C@H]12 [Meropenem] | 2 | – | – | – | – | 157 | 15 | 5 | – | –
19 | CC1(C)S[C@@H]2[C@H](NC(=O)[C@H](NC(=O)N3CCN(S(C)(=O)=O)C3=O)c3ccccc3)C(=O)N2[C@H]1C(=O)O [Mezlocillin] | 125 | – | – | – | – | – | – | 200 | – | –
20 | CO[C@@]1(NC(=O)C(C(=O)O)c2ccc(O)cc2)C(=O)N2C(C(=O)O)=C(CSc3nnnn3C)CO[C@@H]21 (stereo partly drawn) [Moxalactam] | 55 | 3 | 18 | – | – | – | – | 90 | – | –
21 | O=C(Cc1cccs1)N[C@@H]1C(=O)N2C(C(=O)O)=C(/C=C/c3ccc([N+](=O)[O-])cc3[N+](=O)[O-])CS[C@H]12 [Nitrocefin] | 18 | 90 | 100 | 63 | – | 41 | 4 | 770 | – | –
22 | CCN1CCN(C(=O)N[C@@H](C(=O)N[C@@H]2C(=O)N3[C@@H]2SC(C)(C)[C@@H]3C(=O)O)c2ccccc2)C(=O)C1=O [Pipericillin] | – | 50 | 4200 | – | – | – | – | 300 | 125 | –
23 | CC1(C)[C@H](C(=O)O)N2C(=O)C[C@H]2S1(=O)=O [Sulbactam] | – | – | – | – | – | – | – | 23 | 320 | –
24 | C[C@]1(Cn2ccnn2)[C@H](C(=O)O)N2C(=O)C[C@H]2S1(=O)=O [Tazobactam] | 875 | 40 | 700 | – | – | – | – | 28 | – | –
25 | CC1(C)S[C@@H]2[C@H](NC(=O)[C@H](C(=O)O)c3ccsc3)C(=O)N2[C@H]1C(=O)O [Ticarcillin] | 125 | >65 | > 5000 | 1.1 | 740 | – | – | 180 | – | –
26 | CO[C@@]1(NC(=O)C(C(=O)O)c2ccsc2)C(=O)N2[C@@H](C(=O)O)C(C)(C)S[C@@H]21 (stereo partly drawn) [Timocillin] | – | – | – | – | – | – | – | 7.7 | 390 | > 2000
